Test results: US20070135514A1, “Methods for the identification of agents for the treatment of seizures, neurological diseases, endocrinopathies and hormonal diseases” (priority 2002, published 2007)
pKd: −log10 of the molar value. Like-named read-outs stand apart in the source and are kept apart here.

Assays:
[1] = biological target: T1, levetiracetam binding site (LBS) (Rattus norvegicus, UniProt Q02563); details: cited from earlier work
T1 construct: host or cells: crude rat brain membranes (Noyer et al. 1995; Gillard et al. 2003)

hSV2A = biological target: T2, hSV2A (Homo sapiens, UniProt Q7L0J3); experiment: [3H]ucb 30889 binding to hSV2A expressed in COS-7 cells; details: for competition with [3H]ucb 30889 for binding to SV2A: concentrations up to 100 μM
T2 construct: expressed in transfected cells; host or cells: COS-7 cells, transient transfection (pDEST 12.2 Gateway vector, CMV promoter)

audiogenic seizures = details: in vivo; cited from earlier work
[2] = test system: refractory partial seizures; details: adjunctive therapy; cited from earlier work
soluble SV2A = biological target: T3, soluble SV2A (Rattus norvegicus, UniProt Q02563); experiment: [3H]ucb 30889 binding to n-dodecyl-β-D-maltoside solubilized SV2A; details: soluble protein in n-dodecyl-β-D-maltoside; read-out: KD (Scatchard analysis)
T3 construct: from tissue; host or cells: supernatant of detergent-solubilised rat brain membranes
Experimental: The rat brain membranes were diluted in a solubilization buffer (Tris-HCl 20 mM pH 7.4, 0.25 M sucrose, protease inhibitors Complete Roche) containing n-dodecyl-β-D-maltoside 15 mM and incubated for two hours at 4° C. Subsequently, the solution was centrifuged at 4° C. for one hour at 100,000 g. The soluble SV2A was found in the supernatant as detected by western blot using anti-SV2A antibodies (FIG. 21A). The supernatants were incubated with [^3H]ucb 30889 as described. […] Thus, the binding properties of the soluble SV2A are similar to the membrane-bound native form indicative that the soluble protein maintains its native structural conformation in n-dodecyl-β-D-maltoside.

COS-7 = experiment: [3H]ucb 30889 binding in untransfected COS-7 cells; details: untransfected COS-7 cell line
Experimental: (§1) To identify and characterize the LBS in situ, [^3H]ucb 30889 was used to map the LBS within the brain and to study both its cellular and subcellular distribution. For rat brain autoradiography, 25 μm slices were incubated with 1.3 nM [^3H]ucb 30889 for 120 min at 4° C. in 50 mM Tris-HCl buffer (pH 7.4). Binding assays with rat brain membranes and various neuronal cell lines were performed under similar conditions. […] For photolabeling, membranes were incubated with 40 nM [^3H]ucb 30889 for 120 min at 4° C. in the same buffer, followed by irradiation with UV-light for 30 min (Fuks et al., Eur. J. Pharmacol. 478:11-19 (2003)).
In addition, a PC12 cell line subclone, PC12a, which is low in LBS, was used to establish a pool of PC12 cells expressing hSV2A under stable antibiotic selection.

PC12bs cells (LBS) = experiment: Intact cell [3H]ucb 30889 binding in PC12bs cells; parameters: species or system rat; details: identical conditions
Experimental: In a binding experiment, specific binding was measured of [^3H]ucb 30889 to COS-7 cells that have either been transfected with SV2A-12.2, or as controls, a β-gal expressing vector, or cells that have not been transfected (FIG. 13). […] The cells were incubated at 4° C. for 2 hours, and then washed rapidly with ice-cold PBS. The cells were lysed on the plate, transferred to scintillation vials with scintillation fluid and counted for ^3H decay emission. […] In identical intact cell binding experiments using PC12bs cells, known to express the LBS, a 1.5 to 2-fold difference in CPM between the ‘hot’ and ‘hot+cold’ samples is typically seen, as compared to the 5-fold difference seen here.

hSV2C = biological target: T4, hSV2C (Homo sapiens, UniProt Q496J9); experiment: [3H]ucb 30889 binding to hSV2C expressed in COS-7 cells; details: transient COS-7 system
T4 construct: expressed in transfected cells; host or cells: COS-7 cells, transient expression
T4 sequence (Q496J9 1-727): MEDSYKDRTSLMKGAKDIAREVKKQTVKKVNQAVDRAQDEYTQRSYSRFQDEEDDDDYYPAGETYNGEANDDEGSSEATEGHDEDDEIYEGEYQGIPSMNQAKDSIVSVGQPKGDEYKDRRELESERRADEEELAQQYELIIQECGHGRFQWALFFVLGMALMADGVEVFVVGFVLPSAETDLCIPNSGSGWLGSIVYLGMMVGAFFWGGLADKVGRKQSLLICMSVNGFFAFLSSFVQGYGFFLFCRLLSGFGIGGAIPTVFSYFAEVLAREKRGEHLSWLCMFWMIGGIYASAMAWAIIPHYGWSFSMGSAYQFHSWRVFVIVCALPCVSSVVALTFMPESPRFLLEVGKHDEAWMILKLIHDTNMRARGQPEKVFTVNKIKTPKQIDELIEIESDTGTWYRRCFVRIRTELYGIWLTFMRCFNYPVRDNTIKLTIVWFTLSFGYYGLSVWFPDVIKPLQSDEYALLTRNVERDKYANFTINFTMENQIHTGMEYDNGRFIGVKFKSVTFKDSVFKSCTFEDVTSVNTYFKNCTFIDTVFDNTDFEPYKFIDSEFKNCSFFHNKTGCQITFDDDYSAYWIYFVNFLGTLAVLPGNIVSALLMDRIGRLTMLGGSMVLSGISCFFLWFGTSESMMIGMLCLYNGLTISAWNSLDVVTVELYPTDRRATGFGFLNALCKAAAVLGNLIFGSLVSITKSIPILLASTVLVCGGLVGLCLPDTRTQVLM

[3] = test system: LBS in peripheral tissues; experiment: [3H]ucb 30889 specific binding in peripheral tissues; details: 150 μg protein/assay, 1.3 nM radioligand; detection limit Bmax 200 fmol/mg protein
Experimental: (§2) Binding experiments were conducted on crude rat brain membranes at 4° C. as described in Noyer et al. (Euro. J. Pharmacol. 286:137-146 (1995)). Incubation time for equilibrium studies was 120 min. For kinetic and competition studies, [^3H]ucb 30889 (30 Ci/mmol) was used at a concentration of 1.3 nM in 0.5 ml of a Tris-HCl (pH 7.4) buffer containing 2 mM Mg^2+. Localization of the LBS in brain substructures was assessed by autoradiography on 25 μm thick slices incubated under similar conditions. Slides were then washed twice for 10 min at 4° C. in 50 mM Tris-HCl (pH 7.4) containing 0.5% BSA, dried and exposed for 3 weeks to [^3H]Hyperfilm at −20° C. Non-specific binding (NSB) was determined by the inclusion of 1 mM LEV during the incubation period.
The limit of detection under the experimental conditions (150 μg of protein/assay and 1.3 nM of radioligand) was a Bmax of 200 fmol/mg protein.

PC12 = experiment: [3H]ucb 30889 binding in PC12 cells; parameters: species or system rat
Experimental: as §1

[4] = test system: Rat cerebellar granule neurons; experiment: [3H]ucb 30889 binding in rat cerebellar granule neurons
Experimental: as §1

[5] = biological target: T1, levetiracetam binding site (LBS); experiment: [3H]ucb 30889 binding to crude rat brain membranes (kinetic, saturation, competition)
Experimental: as §2

SV2A in native membrane = biological target: T5, SV2A in native membrane (Rattus norvegicus, UniProt Q02563); experiment: Scatchard analysis of [3H]ucb 30889 binding, native rat brain membrane
T5 construct: from tissue

Mouse cortical neurons = experiment: [3H]ucb 30889 binding in mouse cortical neurons
Experimental: as §1

hSV2B = biological target: T6, hSV2B (Homo sapiens, UniProt Q7L1I2); experiment: [3H]ucb 30889 binding to hSV2B expressed in COS-7 cells; details: transient COS-7 system
T6 construct: expressed in transfected cells; host or cells: COS-7 cells, transient expression

[6] = rat brain cortex, 4° C., fast component (25 to 50% of the sites)
[7] = rat brain cortex, 4° C., slow component

T2 sequence (Q7L0J3 whole entry): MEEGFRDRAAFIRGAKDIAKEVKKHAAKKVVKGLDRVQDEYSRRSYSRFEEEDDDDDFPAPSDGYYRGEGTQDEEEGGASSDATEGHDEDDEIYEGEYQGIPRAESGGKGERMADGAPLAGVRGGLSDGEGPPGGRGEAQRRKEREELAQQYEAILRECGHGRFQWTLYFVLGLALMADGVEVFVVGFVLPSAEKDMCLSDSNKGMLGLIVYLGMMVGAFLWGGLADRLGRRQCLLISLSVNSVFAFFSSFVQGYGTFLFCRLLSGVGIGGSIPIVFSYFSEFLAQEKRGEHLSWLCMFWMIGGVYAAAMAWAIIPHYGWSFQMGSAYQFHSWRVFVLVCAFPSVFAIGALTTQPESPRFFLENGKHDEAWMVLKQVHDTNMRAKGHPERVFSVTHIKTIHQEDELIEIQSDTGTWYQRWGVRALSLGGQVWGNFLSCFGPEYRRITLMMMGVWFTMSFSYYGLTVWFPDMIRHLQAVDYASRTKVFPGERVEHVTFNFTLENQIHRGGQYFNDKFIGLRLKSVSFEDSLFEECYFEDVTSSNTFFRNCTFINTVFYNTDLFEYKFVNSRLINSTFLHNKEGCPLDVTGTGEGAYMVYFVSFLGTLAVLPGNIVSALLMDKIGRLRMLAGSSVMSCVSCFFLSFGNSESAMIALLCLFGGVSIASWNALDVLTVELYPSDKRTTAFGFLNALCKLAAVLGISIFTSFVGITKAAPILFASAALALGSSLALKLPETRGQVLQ
T1 sequence (Q02563 whole entry): as the sequence (Q7L0J3 whole entry) above, with D53E, S62A, T71A, E144D, A154T, G440S, S482A, I572V, M634L counted along it
T6 sequence (Q7L1I2 whole entry): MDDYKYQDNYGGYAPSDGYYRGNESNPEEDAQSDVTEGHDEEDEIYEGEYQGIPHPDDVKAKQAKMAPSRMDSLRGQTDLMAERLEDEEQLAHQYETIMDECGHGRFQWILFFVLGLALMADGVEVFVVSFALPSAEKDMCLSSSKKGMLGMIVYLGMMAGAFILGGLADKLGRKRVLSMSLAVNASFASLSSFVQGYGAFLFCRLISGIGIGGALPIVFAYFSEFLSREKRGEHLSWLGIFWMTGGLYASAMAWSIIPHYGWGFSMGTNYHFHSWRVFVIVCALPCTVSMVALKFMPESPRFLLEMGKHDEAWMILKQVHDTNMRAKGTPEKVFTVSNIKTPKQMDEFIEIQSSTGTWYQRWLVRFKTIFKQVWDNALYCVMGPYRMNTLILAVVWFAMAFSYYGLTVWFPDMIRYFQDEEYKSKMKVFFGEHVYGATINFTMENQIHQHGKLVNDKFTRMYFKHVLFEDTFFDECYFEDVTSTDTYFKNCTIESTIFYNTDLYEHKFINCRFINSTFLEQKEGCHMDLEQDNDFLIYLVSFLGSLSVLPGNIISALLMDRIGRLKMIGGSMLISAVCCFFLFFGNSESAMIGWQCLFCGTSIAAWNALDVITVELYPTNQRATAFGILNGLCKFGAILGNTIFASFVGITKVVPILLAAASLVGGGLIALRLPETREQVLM
T5 sequence (Q02563 whole entry): as the sequence (Q7L0J3 whole entry) above, with D53E, S62A, T71A, E144D, A154T, G440S, S482A, I572V, M634L counted along it
T3 sequence (Q02563 whole entry): as the sequence (Q7L0J3 whole entry) above, with D53E, S62A, T71A, E144D, A154T, G440S, S482A, I572V, M634L counted along it

Row | Molecule | displacement of LEV binding [1] | competition with [3H]ucb 30889 for binding to SV2A (hSV2A) | other results
1 | CCCC(C)C1(CC)C(=O)NC(=O)NC1=O (stereo not drawn) [pentobarbital] | competed with LEV | – | –
2 | CC[C@@H](C(N)=O)N1CCCC1=O [ucb L060] | – | – | affinity to hSV2A compared with LEV (hSV2A; displacement of [3H]ucb 30889, COS-7): significantly less affinity
3 | CCC1(C)CC(=O)NC1=O (stereo not drawn) [ethosuximide] | competed with LEV | None of the AEDs at concentrations up to 100 μM, competed | –
4 | CCC1(C)CC(=O)NC(=O)C1 [bemegride] | competed with LEV | – | –
5 | C1CCc2nnnn2CC1 [pentylenetetrazole] | competed with LEV | – | –
6 | O=C1CN=C(c2ccccc2Cl)c2cc([N+](=O)[O-])ccc2N1 [clonazepam] | do not displace LEV binding | – | –
7 | CC[C@@H](C(N)=O)N1CCCC1=O [levetiracetam, (S)-α-ethyl-2-oxo-1-pyrrolidine acetamide] | – | – | affinity for the binding site ([1]; listed as LEV): modest affinity; affinity for the binding site ([1]; listed as [^3H]LEV): only micromolar affinity; suppression of seizures in the audiogenic-susceptible mouse (audiogenic seizures): unexpected potent ability; control of refractory partial seizures in adults [2]: both effective and well tolerated
8 | NC(=O)N1c2ccccc2C=Cc2ccccc21 [carbamazepine] | do not displace LEV binding | None of the AEDs at concentrations up to 100 μM, competed | –
9 | NCC1(CC(=O)O)CCCCC1 [gabapentin] | do not displace LEV binding | None of the AEDs at concentrations up to 100 μM, competed | –
10 | CC[C@@H](C(N)=O)N1CC(c2cccc(N=[N+]=[N-])c2)CC1=O (stereo partly drawn) [ucb 30889, (2S)-2-[4-(3-azidophenyl)-2-oxopyrrolidin-1-yl]butanamide] | – | – | difference in CPM between 'hot' and 'hot+cold' samples (hSV2A; COS-7 transfected with SV2A-12.2, 1 nM radioligand ± 50 μM cold Levetiracetam, 4° C., 2 hours): 5 fold; pKd (soluble SV2A): 7.09; binding above background (COS-7): no binding above background; difference in CPM between 'hot' and 'hot+cold' samples (PC12bs cells (LBS)): 1.5 to 2 fold; binding above background (hSV2C): no binding above background; specific binding in peripheral tissues [3]: could not be detected; Bmax (PC12): 1.4 pmol/mg; pKd (PC12): 7.40; Bmax [4]: 0.7 pmol/mg protein; pKd [4]: 7.23; half-time for association, fast component [5, 6]: 3 ± 2 min; half-time for dissociation, fast component [5, 6]: 4 ± 1 min; half-time for association, slow component [5, 7]: 47 ± 13 min; half-time for dissociation, slow component [5, 7]: 61 ± 15 min; Bmax (saturation binding) ([5]; rat brain membranes, substance used as radioligand): 5054±704 fmol/mg protein; pKd (SV2A in native membrane): 7.52; Bmax (Mouse cortical neurons): 1.4 pmol/mg protein; pKd (Mouse cortical neurons): 7.47; binding above background (hSV2B): no binding above background
11 | O=C1NC(=O)C(c2ccccc2)(c2ccccc2)N1 [phenytoin] | do not displace LEV binding | None of the AEDs at concentrations up to 100 μM, competed | –
12 | CCCC(CCC)C(=O)O [valproate] | do not displace LEV binding | None of the AEDs at concentrations up to 100 μM, competed | –
13 | Cc1ccsc1C(=CCCN1CCC[C@@H](C(=O)O)C1)c1sccc1C [tiagabine] | do not displace LEV binding | None of the AEDs at concentrations up to 100 μM, competed | –
14 | NS(=O)(=O)Cc1noc2ccccc12 [zonisamide] | do not displace LEV binding | None of the AEDs at concentrations up to 100 μM, competed | –
15 | picrotoxin | do not displace LEV binding | – | –
16 | NC(=O)OCC(COC(N)=O)c1ccccc1 [felbamate] | do not displace LEV binding | None of the AEDs at concentrations up to 100 μM, competed | –
17 | COc1ccc(C(=O)N2CCCC2=O)cc1 [aniracetam] | displaced LEV binding | – | –
18 | C=CC(N)CCC(=O)O (stereo not drawn) [vigabatrin] | do not displace LEV binding | None of the AEDs at concentrations up to 100 μM, competed | –
